Measurements as given in PMC9585577, “Oxyresveratrol and Gnetol Glucuronide Metabolites: Chemical Production, Structural Identification, Metabolism by Human and Rat Liver Fractions, and In Vitro Anti-inflammatory Properties” (Journal of Agricultural and Food Chemistry, 2022).

Legend:
[1] = test system: NO production in LPS-stimulated RAW 264.7 cells; test: NO measurement (Griess) in LPS-stimulated macrophages; assay type: cell-based, murine; settings: between 25 and 50 μM (summary statement)
Experimental: (§1) RAW 264.7 cells were cultured in DMEM containing 10% FBS and maintained in a humidified incubator set at 37 °C with 5% CO2. For all following assays, cells were subcultured at a density of 40 000 cells per well in 96 well culture plates with 200 μL of the above-described culture medium. After 24 h, cells were incubated with ORV, GN, and their glucuronide metabolites (5–200 μM) in RPMI medium supplemented with glutamine (4 mM) in the presence or absence of LPS (0.1 μg/mL) (200 μL final volume per well). For MTT, NO, ROS, IL-1β, and TNF-α (n = 4), each experiment was performed in triplicate separately.
After 24 h of treatment of RAW 264.7 cells with ORV, GN, and their glucuronide metabolites, 70 μL of supernatant was mixed with 70 μL of Griess solution. After 15 min in darkness, the absorbance was measured at 550 nm using a microplate reader (FLUOstar Optima, BMG Labtech). A calibration curve of NO2 (0–100 μM) was used for quantification. Data were expressed as NO production (μM) compared to cells treated only with LPS (positive control).

[2] = test system: IL-1β production in LPS-stimulated RAW 264.7 cells; test: IL-1β production (ELISA) in LPS-stimulated macrophages; assay type: cell-based, murine; settings: t-GN 10 and 50 μM, its glucuronides 50 and 200 μM, 24 h
Experimental: as §1
(§2) At 24 h after seeding, RAW 264.7 cells were exposed to LPS (0.1 μg/mL) in the absence or presence of ORV, GN (10 and 50 μM), and their metabolites (50 and 200 μM). After 24 h of exposure, IL-1β and TNF-α concentrations were measured in culture media supernatants by ELISA sandwich assay following the instructions of the manufacturer.

BV-2 microglial cells = test system: BV-2 microglial cells; set-up: method as in PMID 23807809; settings: 5 and 10 μM, BV-2 microglial cells ref 36; cited from earlier work
RAW 264.7 cells = test: MTT cell viability; assay type: cell-based, murine; settings: 24 h, 5–200 μM tested
Experimental: as §1
The MTT colorimetric assay was performed to assess the cell viability of cells after being treated with ORV, GN, and their glucuronide metabolites. After 24 h of treatment, RAW 264.7 cells were incubated with 0.5 mg/mL MTT during 3 h at 37 °C. The formazan crystals formed were dissolved with 100 μL of dimethyl sulfoxide (DMSO), and the plate was then incubated in the darkness for 30 min. Finally, the absorbance was measured at 595 nm using a microplate reader (FLUOstar Optima, BMG Labtech).

[3] = test system: ROS production in LPS-stimulated RAW 264.7 cells; test: Intracellular ROS measurement (DCFH2-DA) in LPS-stimulated macrophages; assay type: cell-based, murine
Experimental: as §1
Generation of intracellular ROS in cells was analyzed using the fluorometric probe DCFH2-DA. After 24 h of treatment with GN, ORV, and their glucuronide metabolites, cells were washed with phosphate-buffered saline (PBS) and then 150 μL of DCFH2-DA (10 μM) was added. After 30 min at 37 °C, the fluorescence intensity was quantified using a microplate reader (FLUOstar Optima, BMG Labtech) with a wavelength of excitation and emission of 485 and 520 nm, respectively. All experiments were performed in darkness. Results were expressed as ROS production (fluorescence intensity expressed as arbitrary units) compared to cells treated only with LPS (positive control).

[4] = set-up: method as in PMID 25939395; settings: rats, intravenous and oral administration ref 2; cited from earlier work
[5] = test system: TNF-α production in LPS-stimulated RAW 264.7 cells; test: TNF-α production (ELISA) in LPS-stimulated macrophages; assay type: cell-based, murine; settings: t-GN 10 and 50 μM, its glucuronides 50 and 200 μM, 24 h
Experimental: as §1, §2

## Oc1cc(O)cc(/C=C/c2c(O)cccc2O)c1 [t-GN, trans-2′,3,5,6′-tetrahydroxystilbene]
[1]
  decrease of NO production: more than 50%
[2]
  reduction of IL-1β: ineffective
BV-2 microglial cells
  cytotoxic effect: no cytotoxic effect
RAW 264.7 cells
  concentration from which toxic (MTT): ≥ 100 µM
[3]; GN, concentration not stated (5–50 μM tested), 24 h, LPS
  counteracting ROS production: more than 55%
[3]; between 25 and 50 μM (summary statement)
  decrease of ROS production: more than 50%
[4]
  calculated bioavailability: 6.6%
[5]
  reduction of TNF-α: ineffective
